Measurements from patent publication US20070264363A1, “Molluscicidal and Anti-Barnacle Compounds” (priority 2003, published 2007).
Where “and” joins values, the source holds several entries; their conditions need not be identical. Identical values can stand only once.

Assays:
[1] = test system: field slug, D. reticulatum; settings: in vivo; cited from earlier work
[2] = test system: D. reticulatum slugs; experiment: Leaf disc assay (no choice-feeding bioassay on lettuce leaf discs); format: in vivo; settings: for amount of lettuce leaf consumed was reduced: solubilisation in aqueous tween 80 (0.5%)
Procedure: Adult D. reticulatum were collected from nearby fields and maintained in plastic trays lined with moist, unbleached, absorbent paper They were housed in the dark and at a constant temperature of 10°±1° C. Slugs were regularly fed on a mixture of iceberg lettuce and carrots. Slugs, with a weight 300-600 mg, were pre-starved for 24 hours and maintained at a constant temperature of 15°±1° C. prior to testing.
The technique described here is a no choice-feeding bioassay using circular discs prepared from lettuce leaves. Selected terpenes were tested against D. reticulatum slugs and evaluated for their repellent/antifeedant and molluscicidal properties.
Lettuce leaf discs (1.4 cm^2) were placed in petri dishes lined with water saturated filter paper ([…] diameter). A known concentration of terpene oil, solubilised in the appropriate media, was prepared and a fixed volume (50 μl) added by pipette, onto individual lettuce leaf discs. Any residual solvent was left to evaporate for a minimum time of 30 iminutes.
Slugs, previously starved for 24 hours, were introduced to the petri dishes and placed in an environmentally controlled chamber (15° C.: 12 hours day, 15° C.: 12 hours night) for 24 hours.
The amount of leaf disc damaged (eaten) was quantified by comparing digital photographs of treated leaf discs with untreated (control) leaf discs, using photographic computer software. The experiment was replicated 20 times for each terpene.
To compare the change in feeding behaviour for different treatments, the leaf damage data was corrected for the control, using the repellency index equation below. [formula]
The antifeedant effect of various media was determined by comparison to untreated leaf discs. A positive R I value indicates a reduction in feeding (antifeedant/repellent) whereas a negative value indicates an increase in feeding behaviour (phagostimulant). Corrections for mortality were done the Abbotts formula (Abbott, 1925). [formula] Bioassay Assay Results: Leaf Disc Assay

[3] = test system: eggs of D. reticulatum; settings: applied at a rate of 4.6 kg/ha; cited from earlier work
[4] = test system: garden snail H. aspersa; experiment: Spray trial with ocimene and bisabolol formulations (Example 8); format: in vivo; settings: for Repellency Index: RI relative to water
Text: Example 7 was repeated wherein the lettuce leaves were sprayed with 5% trans-β-ocimene in Tween 20 and the anti-feedant properties tested on the garden snail H. aspersa.
5 and 10% Ocimene and Bisabolol (H. aspersa)

[5] = test system: garden snail H. aspersa; experiment: as above; format: in vivo; settings: 1% in aq. Tween 20 (1%)
[6] = test system: Balanus amphitrite day 3 cyprids; experiment: Barnacle settlement repeated, cyprids incubated in 10^−5-10^−9M; format: in vivo; settings: after 24 hr
Procedure: The barnacle settlement experiments were repeated; however, this time 10 Balanus amphitrite day 3 cyprids were incubated in varying concentrations (10^−5-10^−9M) of trans-β-ocimene at 28° C. in dark conditions. Each concentration was replicated four times, with a control run. The number of cyprids that had settled, still active, floating on the surface meniscus or dead was counted after 24 and 48 hr incubations. Results are expressed as a % of the total cyprid number in each well minus floating cyprids, as these were unable to settle. Values are expressed as mean ±SEM. The amount of settlement at each concentration was compared to the control settlement using an unpaired t-test.

[7] = test system: D. reticulatum; experiment: Spray trial, lettuce leaves on peat soil (Example 7); format: in vivo, Deroceras reticulatum; settings: 3% in water, 24 hours
Procedure: To evaluate the efficacy of trans-β-ocimene emulsions using peat substrates lettuce leaves were sprayed with 12 ml of an aqueous ocimene emulsion (3%). Once sprayed the leaves were placed in plastic trays containing peat soil and left for 30 minutes to remove the excess liquid drops. After this time period two adult slugs, previously starved for 24 hours, were added to each plastic tray and left for 24 hours.
A control (water) was treated similarly. Four replicates were prepared for each treatment.
Repellency indices were calculated as described for the leaf disc bioassay.

[8] = test system: cyprid larvae of the marine barnacle Balanus amphitrite; experiment: Barnacle settlement in multi-welled plates, extract evaporated to dryness; format: in vivo; settings: top two doses, 24 hrs
Procedure: The settlement of the barnacle Balanus Amphitrite was tested in multi-welled plates in the laboratory. Myrrh and scented Myrrh were extracted in ethanol and 2 ml aliquots from a range of concentrations (50% v/v to 1.5% v/v) were evaporated to dryness in each well of a multi welled plate. Ethanolic trans-β-Ocimene a component of scented Myrrh was also applied in the manner over a range of concentrations (50% v/v to 1.5-% v/v). After evaporation saltwater containing active cyprid larvae was introduced to each well and their settlement and activity measured after 24 hrs.

[9] = test system: D. reticulatum slugs; experiment: Spray trial (controlled temperature units) monitored over 7 days (Example 9); format: in vivo; settings: for % Leaf Damage: 5% oil emulsion spray; for % Mortality: 5% spray
Text: The same spray trial as in the previous examples was repeated and leaf damage monitored for 7 days.
Spray Trial (Controlled Temperature Units) Monitoring Leaf Damage Over 7 Days (D. reticulatum)
Spray Trial (Controlled Temperature Units) Monitoring Mortality Over 7 Days (D. reticitlatum)

CC1CCC(C(C)C)C(O)C1 (stereo not shown) [menthol]
mollusc repellent activity [1]: effective mollusc repellents | molluscicidal activity [1]: potent molluscicides

C=C1CC/C=C(\C)CC[C@@H]2[C@@H]1CC2(C)C [Carophyllene]
Corrected Mortality ([2]; 0.96% in ethanol): 15% | Repellency Index ([2]; 0.96% in ethanol): 40%

C=C(C)C1CC=C(C)C(=O)C1 (stereo not shown) [Carvone, carvone]
time to induce death [3]: 2 days | molluscicidal activity [1]: potent molluscicides

C=C/C(C)=C\CC=C(C)C [cis-β-Ocimene]
Repellency Index ([2]; 0.35% in Aq. Tween 80 (0.2%)): 84% | Corrected Mortality ([2]; in vivo): 15% | mortalities ([2]; in vivo): Low | amount of lettuce leaf consumed was reduced [2]: 84%

CC(C)=CCC/C(C)=C1/CC=C(C)CC1 [γ-bisabolene]
Corrected Mortality ([2]; 0.7% in ethanol): 0% | Repellency Index ([2]; 0.7% in ethanol): 70%

C=C1/C=C/C(C(C)C)CC/C(C)=C/CC1 (stereo not shown) [Germacrene D]
Corrected Mortality ([2]; 0.4% in ethanol): 0% | Repellency Index ([2]; 0.4% in ethanol): 77%

CC(C)=CCC/C(C)=C/CC/C(C)=C/CO [trans, trans farnesol]
Repellency Index ([2]; 0.96% in ethanol): 96% | Corrected Mortality ([2]; in vivo): 0%

CC(C)[C@@H]1CC[C@@H](C)CC1=O [menthone]
molluscicidal activity [1]: potent molluscicides

CC(C)=CCC[C@](C)(O)C1CC=C(C)CC1 (stereo partly drawn) [α-bisabolol]
Repellency Index ([4]; 1% in aq. Tween 20 (1%)): 90 | % Mortality ± SEM ([4]; in vivo): 0% | % Leaf Damage ± SEM [5]: 10 ± 0%

CC(C)=CCC/C(C)=C/CC/C(C)=C\CO [cis, trans farnesol]
Corrected Mortality ([2]; 0.95% in ethanol): 0% | Repellency Index ([2]; 0.95% in ethanol): 77%

C=C/C(C)=C/CC=C(C)C [trans-β-Ocimene]
% Leaf Damage ± SEM ([4]; 5% in Water): 79 ± 9 NS % | % Mortality ± SEM ([4]; 5% in Water): 0% | Repellency Index ([4]; 5% in Water): 21 | % Leaf Damage ± SEM ([4]; 5% in aq. Synperonic (0.025%)): 2 ± 2 % | % Mortality ± SEM ([4]; 5% in aq. Synperonic (0.025%)): 17 ± 7 % | Repellency Index ([4]; 5% in aq. Synperonic (0.025%)): 98 | % Leaf Damage ± SEM ([4]; 5% in aq. Synperonic (5%)): 0 ± 0 % | % Mortality ± SEM ([4]; 5% in aq. Synperonic (5%)): 0% | Repellency Index ([4]; 5% in aq. Synperonic (5%)): 100 | % Leaf Damage ± SEM ([4]; 5% in aq. Tween 20 (5%)): 0 ± 0 % | % Mortality ± SEM ([4]; 5% in aq. Tween 20 (5%)): 0% | Repellency Index ([4]; 5% in aq. Tween 20 (5%)): 100 | % Leaf Damage ± SEM ([4]; 10% in Water): 0 ± 0 % | % Mortality ± SEM ([4]; 10% in Water): 5% | Repellency Index ([4]; 10% in Water): 100 | inhibition of settlement ([6]; 10^−5-10^−9M, 28° C., dark): inhibition of settlement in a reverse dose-dependent manner | settlement compared to the control (unpaired t-test) ([6]; lowest concentration (10^−9M)): statistically different from the control | Leaf damage ([7]; 12 ml spray, single replicates 1-4): 18.69% and 9.33% and 0.00% and 0.99% | Repellency Indices [7]: 76.5% | Mean Leaf damage ([7]; four replicates): 7.25% | Repellency Indices ([7]; listed as trans-β-ocimene): 77% | mortality ([7]; peat containers): No mortality | state of larvae [8]: all floating on the surface but were ‘mutated’ | % Leaf Damage ([9]; Day 1): 0% | % Leaf Damage ([9]; Day 2): 0% | % Leaf Damage ([9]; Day 3): 0% | % Leaf Damage ([9]; Day 4): 0% | % Leaf Damage ([9]; Day 5): 0% | % Leaf Damage ([9]; Day 6): 0% | % Leaf Damage ([9]; Day 7): 0% | % Mortality ([9]; Day 1): 67% | % Mortality ([9]; Day 2): 80 ± 12% | % Mortality ([9]; Day 3): 87 ± 7% | % Mortality ([9]; Day 4): 87 ± 7% | % Mortality ([9]; Day 5): 93 ± 7% | % Mortality ([9]; Day 6): 93 ± 7% | % Mortality ([9]; Day 7): 93 ± 7% | Corrected Mortality ([2]; 0.1% in ethanol): 0% | Repellency Index ([2]; 0.1% in ethanol): 5% | Corrected Mortality ([2]; 0.22% in Aq. Dmso (10%)): 0% | Repellency Index ([2]; 0.22% in Aq. Dmso (10%)): 2% | Corrected Mortality ([2]; 0.45% in Aq. Dmso (2.5%)): 20% | Repellency Index ([2]; 0.45% in Aq. Dmso (2.5%)): 91% | Corrected Mortality ([2]; 0.45% in Aq. Dmso (10%)): 70% | Repellency Index ([2]; 0.45% in Aq. Dmso (10%)): 90% | Corrected Mortality ([2]; 0.45% in Aq. Tween 80 (0.2%)): 20% | Repellency Index ([2]; 0.45% in Aq. Tween 80 (0.2%)): 91% | Corrected Mortality ([2]; 0.45% in Aq. Tween 80 (0.5%)): 10% | Repellency Index ([2]; 0.45% in Aq. Tween 80 (0.5%)): 73% | Corrected Mortality ([2]; 0.45% in Water): 90% | Repellency Index ([2]; 0.45% in Water): 100% | Corrected Mortality ([2]; 0.45% in ethanol, 24 hours): 0% | Repellency Index ([2]; 0.45% in ethanol, 24 hours): 35% | Corrected Mortality ([2]; 0.90% in Aq. Dmso (10%)): 75% | Repellency Index ([2]; 0.90% in Aq. Dmso (10%)): 92% | Corrected Mortality ([2]; 0.9% in ethanol): 5% | Repellency Index ([2]; 0.9% in ethanol): 95% | Corrected Mortality ([2]; 2.7% in Aq. Dmso (10%)): 95% | Repellency Index ([2]; 2.7% in Aq. Dmso (10%)): 100% | mortalities ([2]; Examples 2 and 4, aqueous tween 80): Low | slug mortality ([2]; pure oil, immediately on contact): 100% | amount of lettuce leaf consumed was reduced [2]: 73%

CC1=CCC(C(C)(C)O)CC1 (stereo not drawn) [α-terpineol]
mollusc repellent activity [1]: effective mollusc repellents

C=C/C(C)=C/C/C=C(\C)CCC=C(C)C [α-farnesene]
Repellency Index ([2]; 0.7% in ethanol): 60% | Repellency Index ([2]; 2.7% in ethanol): 97%

Cc1ccc(C(C)C)c(O)c1 [thymol]
mollusc repellent activity [1]: effective mollusc repellents
